The text below walks through data of patent EP0942906B1, “COMPOUNDS USEFUL FOR INHIBITION OF FARNESYL PROTEIN TRANSFERASE” (SCHERING CORPORATION, priority 1996, dated 1998).

Test [1] deals with farnesyl protein transferase (Homo sapiens, UniProt P49354+P49356). The experiment in a line: FPT IC50, inhibition of farnesyl protein transferase, in vitro enzyme assay (procedure of WO 95/10516). The test is classed as biochemical. Particulars: range stated for the listed group of compounds. How it is done:
(§1) FPT IC50 (inhibition of farnesyl protein transferase, in vitro enzyme assay) and COS Cell IC50 (Cell-Based Assay) were determined following the assay procedures described in WO 95/10516, published April 20, 1995. GGPT IC50 (inhibition of geranylgeranyl protein transferase, in vitro enzyme assay), Cell Mat Assay, and anti-tumor activity (in vivo anti-tumor studies) could be determined by the assay procedures described in WO 95/10516.

A further test deals with COS Cell. The test is described as follows: COS Cell IC50 (Cell-Based Assay, procedure of WO 95/10516). Conditions: range stated for the listed group of compounds. The procedure:
as §1

Where [2] appears, read: H-ras, read-out: FPT IC50 (H-ras).
Setting [3] is: k-ras, read-out: FPT IC50 (k-ras).
Setting [4] is: ras form not stated, read-out: FPT IC50.

Where two headings read alike, the source gives them in different places. Where only a bound is given, the exact number is not on record here.

Sequence of farnesyl protein transferase (P49356 whole entry, one chain of several): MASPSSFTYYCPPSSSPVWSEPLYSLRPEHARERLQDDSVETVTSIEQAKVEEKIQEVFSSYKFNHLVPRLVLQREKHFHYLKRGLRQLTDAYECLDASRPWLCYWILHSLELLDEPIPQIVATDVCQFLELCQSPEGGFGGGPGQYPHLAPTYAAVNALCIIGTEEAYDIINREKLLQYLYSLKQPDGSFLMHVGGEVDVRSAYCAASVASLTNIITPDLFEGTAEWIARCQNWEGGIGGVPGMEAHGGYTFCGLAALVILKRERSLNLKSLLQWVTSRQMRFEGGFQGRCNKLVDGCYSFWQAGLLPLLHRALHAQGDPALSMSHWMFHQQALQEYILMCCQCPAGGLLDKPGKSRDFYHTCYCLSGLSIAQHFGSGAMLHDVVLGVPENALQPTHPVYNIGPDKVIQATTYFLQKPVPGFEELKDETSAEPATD

As to `CC(C)(C)OC(=O)N1CCC[C@H]1C(=O)N1CCC(CC(=O)N2CCC([C@H]3c4ncc(Br)cc4CCc4cc(Cl)cc(Br)c43)CC2)CC1` [Compound 7.0], the results for the IC50 (in test [1] (setting [2]); in test [1] (setting [3]); in the test with COS Cell (read-out: Cos Cell IC50)) were 2 to 31.7 nM, 14.5 to 71.2 nM and 10 to 700 nM, respectively. For the compound `O=C(NCC(=O)N1CCC(CC(=O)N2CCC([C@H]3c4ncc(Br)cc4CCc4cc(Cl)cc(Br)c43)CC2)CC1)c1ccccc1` [Compound 12.0], the IC50 in test [1] (setting [2]) fell in the range of 2 to 31.7 nM; in the test with COS Cell (read-out: Cos Cell IC50), 10 to 700 nM. With `CCOC(=O)CC(=O)N1CCC(CC(=O)N2CCC(C3c4ncc(Br)cc4CCc4cc(Cl)cc(Br)c43)CC2)CC1` (stereo not shown) [Compound 15.3], the IC50 in test [1] (setting [2]) lay within 2 to 31.7 nM; in the test on COS Cell (read-out: Cos Cell IC50) it was 10 to 700 nM. Take `COC(NC(=O)CC(=O)N1CCC(CC(=O)N2CCC([C@H]3c4ncc(Br)cc4CCc4cc(Cl)cc(Br)c43)CC2)CC1)C(C)C` (stereo partly shown) [Compound 51.0-B]: the IC50 in test [1] (setting [4]) was 0.7 to 18 nM; in the test with COS Cell (read-out: Cos Cell) it was ≥ 9 nM. The corresponding values for `O=C(CC1CCN(C(=O)CC2CCCCO2)CC1)N1CCC([C@H]2c3ncc(Br)cc3CCc3cc(Cl)cc(Br)c32)CC1` (stereo partly shown) [Compound 114.3-B] are 0.7 to 18 nM and ≥ 9 nM. Regarding `NCCCC(=O)N1CCC(CC(=O)N2CCC([C@H]3c4ncc(Br)cc4CCc4cc(Cl)cc(Br)c43)CC2)CC1` [Compound 90.0-B], the IC50 in test [1] (setting [4]) is 0.7 to 18 nM.

In the case of `C[C@@H](NC(=O)OC(C)(C)C)C(=O)N1CCC(CC(=O)N2CCC([C@H]3c4ncc(Br)cc4CCc4cc(Cl)cc(Br)c43)CC2)CC1` [Compound 4.0], the figures for the IC50 in test [1] (setting [2]) and in test [1] (setting [3]) were 2 to 31.7 nM and 14.5 to 71.2 nM, respectively. On to `O=C(CCN1CCCCC1)N1CCC(CC(=O)N2CCC(C3c4ncc(Br)cc4CCc4cc(Cl)cc(Br)c43)CC2)CC1` (single isomer, unassigned; (+)) [Compound 14.2], for which the results for the IC50 (in test [1] (setting [2]); in the test with COS Cell (read-out: Cos Cell IC50)) were 2 to 31.7 nM and 10 to 700 nM, respectively. `CN(C)CCCC(=O)N1CCC(CC(=O)N2CCC([C@H]3c4ncc(Br)cc4CCc4cc(Cl)cc(Br)c43)CC2)CC1` [Compound 12.2]: the IC50 in test [1] (setting [2]) is 2 to 31.7 nM. For `N[C@@H](Cc1c[nH]cn1)C(=O)N1CCC(CC(=O)N2CCC([C@H]3c4ncc(Br)cc4CCc4cc(Cl)cc(Br)c43)CC2)CC1` [Compound 9.0], the IC50 in test [1] (setting [2]) was in the range of 2 to 31.7 nM; in test [1] (setting [3]), 14.5 to 71.2 nM. Turning to `N[C@@H](Cc1ccccc1)C(=O)N1CCC(CC(=O)N2CCC([C@H]3c4ncc(Br)cc4CCc4cc(Cl)cc(Br)c43)CC2)CC1` [Compound 8.0], the IC50 in test [1] (setting [2]) lay within 2 to 31.7 nM; in test [1] (setting [3]), 14.5 to 71.2 nM; in the test with COS Cell (read-out: Cos Cell IC50) it was 10 to 700 nM. As for `C[C@H](NC(=O)OC(C)(C)C)C(=O)N1CCC(CC(=O)N2CCC([C@H]3c4ncc(Br)cc4CCc4cc(Cl)cc(Br)c43)CC2)CC1` [Compound 3.0], the IC50 fell in the range of 2 to 31.7 nM in test [1] (setting [2]) and 14.5 to 71.2 nM in test [1] (setting [3]). For `O=C(CC1CCN(C(=O)Cn2cnc(-c3ccccc3)c2)CC1)N1CCC([C@H]2c3ncc(Br)cc3CCc3cc(Cl)cc(Br)c32)CC1` [Compound 20.0-B], the IC50 in test [1] (setting [4]) was 0.7 to 18 nM. Same read-out and setting: to `CCOC(CC(=O)N1CCC(CC(=O)N2CCC([C@H]3c4ncc(Br)cc4CCc4cc(Cl)cc(Br)c43)CC2)CC1)OCC` [Compound 76.0-B] belongs 0.7 to 18 nM.

Regarding `CC(C)(C)OC(=O)NCCC(=O)N1CCC(CC(=O)N2CCC([C@H]3c4ncc(Br)cc4CCc4cc(Cl)cc(Br)c43)CC2)CC1` [Compound 86.0-B], the IC50 in test [1] (setting [4]) fell in the range of 0.7 to 18 nM. As to `CC(C)(C)OC(=O)NCC(=O)N1CCC(CC(=O)N2CCC([C@H]3c4ncc(Br)cc4CCc4cc(Cl)cc(Br)c43)CC2)CC1` [Compound 2.0], the IC50 lay in the range of 2 to 31.7 nM in test [1] (setting [2]) and 14.5 to 71.2 nM in test [1] (setting [3]). Turning to `CC(C)(C)OC(=O)N[C@@H](Cc1ccccc1)C(=O)N1CCC(CC(=O)N2CCC([C@H]3c4ncc(Br)cc4CCc4cc(Cl)cc(Br)c43)CC2)CC1` [Compound 5.0], in test [1] (setting [2]), the IC50 lay within 2 to 31.7 nM. In the case of `CCOC(=O)CC(=O)N1CCC(CC(=O)N2CCC([C@H]3c4ncc(Br)cc4CCc4cc(Cl)cc(Br)c43)CC2)CC1` [Compound 8.0-B], the IC50 in test [1] (setting [4]) was 0.7 to 18 nM.
